This is an account of results in US12559496B2, “Imidazopyrimidines as modulators of IL-17” (Janssen Pharmaceutica NV, priority 2020, dated 2026).

For experiment [1], the target named is IL-17A(FLAG-Tagged): IL-17RA(His-Tagged) (Homo sapiens, UniProt Q16552, K93Q). Put plainly: IL-17A(FLAG-Tagged): IL-17RA(His-Tagged) Binding Disruption Eu-HTRF Assay. The settings on record: disruption of IL-17A/IL-17RA binding; simple average if tested more than once. The text has this: IL-17A(FLAG-Tagged): IL-17RA(His-Tagged) Binding Disruption Eu-HTRF Assay
Sequence of UniProt Q16552 (Q16552 with tags, fused parts or gaps K93Q): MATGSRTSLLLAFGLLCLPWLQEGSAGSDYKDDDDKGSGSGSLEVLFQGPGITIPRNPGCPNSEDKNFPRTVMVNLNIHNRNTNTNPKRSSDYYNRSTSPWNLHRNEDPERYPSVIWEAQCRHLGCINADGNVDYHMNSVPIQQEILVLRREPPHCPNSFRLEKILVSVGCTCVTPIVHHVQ
An antibody directed against the FLAG tag of IL-17A (SEQ ID NO: 1) is labeled with the HTRF donor chromophore (Europium-cryptate). IL-17A is present as a dimer that is “locked into” this quaternary structure due to the formation of loop-spanning […] disulfide bridges. The construct of IL-17RA used in the assay excludes the […] portion of the receptor and is fused to a C-terminal 10×His tag (SEQ ID NO:2). An antibody directed against the His tag of the IL-17RA chimera is labeled with the HTRF acceptor chromophore (“D2”). The fluorescence-resonance energy transfer (FRET) depends on the vicinity of the donor chromophore to the acceptor, and interruption of the binding between the IL-17A and IL-17RA causes the reduction/loss of FRET. Therefore, this assay allows to evaluate the compound effect on the binding IL-17A and IL-17RA by monitoring the fluorescence intensity of donor vs acceptor. The assay is run as described below.
40 nL of 2-fold serial diluted compound solution for total 22 dilution points is added into each well of a 1536-well, white, low-volume, non-binding plate (Greiner #782904), then 2 μL of FLAG tagged IL-17A at 2× final concentration (2.5 nM) in solution of PBS+0.01% Triton-X100 is added to each well. The assay plate is briefly centrifuged then incubated for 1 h at rt. A mixed solution is prepared containing 2×5 nM 10HIS×IL-17RA, 2×2.5 nM Eu-anti-FLAG (CISBIO), 2×5 nM D2-anti-HIS (CISBIO) in PBS+0.01% Triton-X100+200 mM Potassium Fluoride (Sigma 60238) and 2 μL of mix is added to each well of the assay plate. The plate is briefly centrifuged then incubated for 2 h at rt. The HTRF intensities at the wavelength of donor (620 nm) and acceptor (665 nm) are measured using BMG Pherastar. The ratio between intensities at two wavelengths is calculated and plotted against the compound concentration and the data is fitted to a one-site competition model to yield IC50 of the compound.
On the technique in general: TR-FRET usually uses a lanthanide donor and a delayed reading to cut background.

The test system of experiment [2] is IL-17A-induced G-CSF production in human normal keratinocytes (NHK). Kind of experiment: NHK Assay: IL-17A-induced G-CSF production in human normal keratinocytes. In kind it is cell-based. As to conditions: IL-17A 5 ng/mL, 24 h, 5% FBS, simple average if tested more than once. Here is the method: IL-17A acts directly on keratinocytes through binding to dimeric receptor IL-17RA/RC and drives the production of a number of inflammatory mediators known to be elevated in psoriasis lesional tissue. IL-17A small molecule inhibitors that block the IL-17A to interact with IL-17R would inhibit the IL-17A signaling in its targeted cells such as keratinocytes. The compound functional activity is evaluated for its impact on IL-17A-induced G-CSF production in human normal keratinocytes (NHK).
Adult normal human keratinocytes are cultured in keratinocyte growth medium (Lonza) in a flask till reaching ˜ 90% confluence, then cells are transferred to a 384-well plate at density of 3000-4000 cell/well. Recombinant human IL-17A (Gibco PHC9174) is pre-incubated with titrated compound or DMSO for 1 h at rt then added to the cell culture plate. The final concentration of IL-17A is 5 ng/mL and DMSO is 0.2%, in the culture containing 5% FBS. Cells are cultured/treated for 24 h at 37° C. Supernatants are collected and G-CSF production is measured through HTRF technology using Human G-CSF Kit (CisBio). G-CSF concentration was extrapolated from the standard curve and IC50 is determined using GraphPad Prism. Cell viability is also evaluated using CellTiter-Glo kit (Promega) and effect of compound on cell viability is compared to DMSO control.

pIC50: −log10 of the molar value.

Take `CC(CC(=O)N[C@@H](c1ccn2cc([C@@H](NC(=O)c3ncnn3CC3CC3)C3CCC(F)(F)CC3)nc2n1)C1CC1)C(F)(F)F` (single isomer, unassigned) [Example 19, N—((S)-(7-((R)-Cyclopropyl((S*)-4,4,4-trifluoro-3-methylbutanamido)methyl)imidazo[1,2-a]pyrimidin-2-yl)(4,4-difluorocyclohexyl)methyl)-1-(cyclopropylmethyl)-1H-1,2,4-triazole-5-carboxamide]: the pIC50 is 6.59 in experiment [1] and 5.92 in experiment [2].
For the compound `CC(CC(=O)N[C@@H](c1ccn2cc([C@@H](NC(=O)c3ncnn3CC3CC3)C3CCC(F)(F)CC3)nc2n1)C1CC1)C(F)(F)F` (single isomer, unassigned) [Example 20, N—((S)-(7-((R)-Cyclopropyl((R*)-4,4,4-trifluoro-3-methylbutanamido)methyl)imidazo[1,2-a]pyrimidin-2-yl)(4,4-difluorocyclohexyl)methyl)-1-(cyclopropylmethyl)-1H-1,2,4-triazole-5-carboxamide], the values for the negative-log IC50 (pIC50) in experiment [1] and in experiment [2] were 6.33 and 5.55, respectively.
The matching figures for `Cc1c(C(=O)N[C@H](c2cn3ccc(C(NC(=O)CCC(F)(F)F)C4CC4)nc3n2)C2CCC(F)(F)CC2)cnn1CCC(F)(F)F` (single isomer, unassigned) [Example 38, N—((S)-(7-((S*)-Cyclopropyl(4,4,4-trifluorobutanamido)methyl)imidazo[1,2-a]pyrimidin-2-yl)(4,4-difluorocyclohexyl)methyl)-5-methyl-1-(3,3,3-trifluoropropyl)-1H-pyrazole-4-carboxamide]: 6.05 and 6.03.
As for `Cc1c(C(=O)N[C@H](c2cn3ccc(C(NC(=O)CCC(F)(F)F)C4CC4)nc3n2)C2CCC(F)(F)CC2)cnn1CCC(F)(F)F` (single isomer, unassigned) [Example 39, N—((S)-(7-((R*)-Cyclopropyl(4,4,4-trifluorobutanamido)methyl)imidazo[1,2-a]pyrimidin-2-yl)(4,4-difluorocyclohexyl)methyl)-5-methyl-1-(3,3,3-trifluoropropyl)-1H-pyrazole-4-carboxamide], the negative-log IC50 (pIC50) is 4.89 in experiment [1] and approximately 4.70 in experiment [2].
In the same order, the values of `O=C(CCC(F)(F)F)NC(c1ccn2cc([C@@H](NC(=O)c3cnn(CCC(F)(F)F)n3)C3CCC(F)(F)CC3)nc2n1)C1CC1` (single isomer, unassigned) [Example 40, N—((S)-(7-((S*)-Cyclopropyl(4,4,4-trifluorobutanamido)methyl)imidazo[1,2-a]pyrimidin-2-yl)(4,4-difluorocyclohexyl)methyl)-2-(3,3,3-trifluoropropyl)-2H-1,2,3-triazole-4-carboxamide] are 6.51 and 6.44.
In the case of `O=C(CCC(F)(F)F)NC(c1ccn2cc([C@@H](NC(=O)c3cnn(CCC(F)(F)F)n3)C3CCC(F)(F)CC3)nc2n1)C1CC1` (single isomer, unassigned) [Example 41, N—((S)-(7-((R*)-Cyclopropyl(4,4,4-trifluorobutanamido)methyl)imidazo[1,2-a]pyrimidin-2-yl)(4,4-difluorocyclohexyl)methyl)-2-(3,3,3-trifluoropropyl)-2H-1,2,3-triazole-4-carboxamide], the negative logarithm of the IC50 (pIC50) in experiment [1] is 5.62; in experiment [2], 5.60.
Take `O=C(CCC(F)(F)F)NC(c1ccn2cc([C@@H](NC(=O)c3ccn(CCC(F)(F)F)n3)C3CCC(F)(F)CC3)nc2n1)C1CC1` (single isomer, unassigned) [Example 42, N—((S)-(7-((S*)-Cyclopropyl(4,4,4-trifluorobutanamido)methyl)imidazo[1,2-a]pyrimidin-2-yl)(4,4-difluorocyclohexyl)methyl)-1-(3,3,3-trifluoropropyl)-1H-pyrazole-3-carboxamide]: the negative-log IC50 (pIC50) in experiment [1] is 6.32; in experiment [2], 6.28.
In the same order, the values of `O=C(CCC(F)(F)F)NC(c1ccn2cc([C@@H](NC(=O)c3ccn(CCC(F)(F)F)n3)C3CCC(F)(F)CC3)nc2n1)C1CC1` (single isomer, unassigned) [Example 43, N—((S)-(7-((R*)-Cyclopropyl(4,4,4-trifluorobutanamido)methyl)imidazo[1,2-a]pyrimidin-2-yl)(4,4-difluorocyclohexyl)methyl)-1-(3,3,3-trifluoropropyl)-1H-pyrazole-3-carboxamide] are 5.24 and approximately 4.70.
In the same order, the values of `Cn1nccc1C(=O)N[C@H](c1cn2ccc(C(NC(=O)CCC(F)(F)F)C3CC3)nc2n1)C1CCC(F)(F)CC1` (single isomer, unassigned) [Example 44, N—((S)-(7-((S*)-Cyclopropyl(4,4,4-trifluorobutanamido)methyl)imidazo[1,2-a]pyrimidin-2-yl)(4,4-difluorocyclohexyl)methyl)-1-methyl-1H-pyrazole-5-carboxamide] are 6.66 and 6.77.
Turning to `Cn1nccc1C(=O)N[C@H](c1cn2ccc(C(NC(=O)CCC(F)(F)F)C3CC3)nc2n1)C1CCC(F)(F)CC1` (single isomer, unassigned) [Example 45, N—((S)-(7-((R*)-Cyclopropyl(4,4,4-trifluorobutanamido)methyl)imidazo[1,2-a]pyrimidin-2-yl)(4,4-difluorocyclohexyl)methyl)-1-methyl-1H-pyrazole-5-carboxamide], the pIC50 is 5.54 in experiment [1] and 5.68 in experiment [2].
In the same order, the values of `CC(C)n1nccc1C(=O)N[C@H](c1cn2ccc(C(NC(=O)CCC(F)(F)F)C3CC3)nc2n1)C1CCC(F)(F)CC1` (single isomer, unassigned) [Example 46, N—((S)-(7-((S*)-Cyclopropyl(4,4,4-trifluorobutanamido)methyl)imidazo[1,2-a]pyrimidin-2-yl)(4,4-difluorocyclohexyl)methyl)-1-isopropyl-1H-pyrazole-5-carboxamide] are 5.59 and 5.59.
Regarding `CC(C)n1nccc1C(=O)N[C@H](c1cn2ccc(C(NC(=O)CCC(F)(F)F)C3CC3)nc2n1)C1CCC(F)(F)CC1` (single isomer, unassigned) [Example 47, N—((S)-(7-((R*)-Cyclopropyl(4,4,4-trifluorobutanamido)methyl)imidazo[1,2-a]pyrimidin-2-yl)(4,4-difluorocyclohexyl)methyl)-1-isopropyl-1H-pyrazole-5-carboxamide], the values for the negative logarithm of the IC50 (pIC50) in experiment [1] and in experiment [2] were 6.39 and 6.92, respectively.
In the case of `O=C(CCC(F)(F)F)NC(c1ccn2cc([C@@H](NC(=O)c3cnn(CCC(F)(F)F)c3)C3CCC(F)(F)CC3)nc2n1)C1CC1` (single isomer, unassigned) [Example 49, N—((S)-(7-((S*)-Cyclopropyl(4,4,4-trifluorobutanamido)methyl)imidazo[1,2-a]pyrimidin-2-yl)(4,4-difluorocyclohexyl)methyl)-1-(3,3,3-trifluoropropyl)-1H-pyrazole-4-carboxamide], the pIC50 in experiment [1] was 6.30; in experiment [2] (Homo sapiens, Keratinocyte), 6.13.
On to `Cc1nonc1C(=O)N[C@H](c1cn2ccc([C@H](NC(=O)CC3CC3(F)F)C3CC3)nc2n1)C1CCC(F)(F)CC1` (single isomer, unassigned) [Example 51, N—((S)-(7-((R)-Cyclopropyl(2-((S*)-2,2-difluorocyclopropyl)acetamido)methyl)imidazo[1,2-a]pyrimidin-2-yl)(4,4-difluorocyclohexyl)methyl)-4-methyl-1,2,5-oxadiazole-3-carboxamide], for which the pIC50 in experiment [1] is 6.44; in experiment [2] (Homo sapiens, Keratinocyte), 5.70.

Broadly, the pIC50 is the IC50 on a negative log10 scale, so that one unit is a factor of ten. Read a high pIC50 as a small IC50.
